Values of other authors, collected in US6849609B2, “Method and composition for controlled release acarbose formulations” (priority 2001, dated 2005).

Tested on: patients

hypoglycemia (acarbose alone, even when administered to patients in a fasted state): has not been shown to cause hypoglycemia
SMILES: C[C@H]1O[C@H](O[C@H]2[C@H](O)[C@@H](O)[C@@H](O[C@H]3[C@H](O)[C@@H](O)C(O)O[C@@H]3CO)O[C@@H]2CO)[C@H](O)[C@@H](O)[C@@H]1N[C@H]1C=C(CO)[C@@H](O)[C@H](O)[C@H]1O (some centres unmarked) [Acarbose]
most common adverse events (patients taking acarbose, shown to abate with time): flatulence, diarrhea and abdominal discomfort
